Experimental data as given in patent publication US10239923B2, “Specific amyloid beta binding peptides and the use of same for treating and diagnosing alzheimer's dementia” (Forschungszentrum Juelich GmbH, priority 2015, dated 2019).
Square brackets hold non-standard residues; d marks the D form. Peptide text beside a SMILES is read from it.

Experiments:
Type in all cases: biochemical
[1] = molecular target: T1, Aβ1-42 (Homo sapiens, UniProt P05067); assay: ThT test, modulation of Aβ1-42 aggregation; conditions: 10 μM Aβ1-42, equimolar peptide, versus Aβ1-42 alone = 100%
T1 sequence (P05067 672-713 limits assumed): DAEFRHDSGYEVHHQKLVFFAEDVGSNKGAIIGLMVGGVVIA
Description: FIG. 3: The average relative fluorescence from seven independently performed ThT experiments with standard deviation is shown. The dye Thioflavin T (ThT) binds to β-pleated sheet structures in the batch and thereupon changes its fluorescence spectrum. […] The time in which the logarithmic rise of the fluorescence signal transitioned into a stationary phase was set to 100%.

[2] = molecular target: Aβ1-42 species of different size (Homo sapiens, UniProt P05067); assay: Quantification of density gradient fractions by RP-HPLC
Chain of Aβ1-42 species of different size (P05067 672-713 limits assumed): as above
Description: Certain further embodiments of the invention including a method will be presented hereinafter. What is known as the QIAD test (quantitative determination of interference with Aβ aggregate size distribution) can be used for the quantitative analysis of active substances. The method for quantitative analysis of the influence of an active substance on the particle size distribution of amyloid peptides and/or proteins in a sample has the following steps: A beta is first left to aggregate under controlled conditions, so that different A beta aggregates form. The conditions are selected so that a particularly large amount of small, particularly cytotoxic A beta oligomers are formed. […] This change is determined quantitatively. […] Due to the QIAD method, the increase or decrease of A beta aggregates of a specific particle size is measured. […] The concentration of A beta in the respective fractions is then determined by a complete denaturing of the A beta species during a reversed-phase (RP-)HPLC performed subsequently to the fractionation. […] Eluting A beta is detected by means of UV absorption at 215 nm. […] The mean value from a number of experiments carried out independently of one another (for example six) with the resultant standard deviation can be calculated for each fraction. […]
Samples of each fraction from the experiment shown in FIG. 5 were separated and quantified by means of reversed-phase HPLC. […]

[3] = molecular target: T1, Aβ1-42; assay: TEM of Aβ1-42 incubated with and without Mosd1; conditions: 10 μM Aβ1-42 with 10 μM Mosd1, 24 hours, room temperature
Description: The scale bars correspond to 0.25 μm.

CSCC[C@@H](NC(=O)[C@@H](Cc1c[nH]cn1)NC(=O)[C@@H](Cc1ccc(O)cc1)NC(=O)[C@@H](CO)NC(=O)[C@H](NC(=O)[C@@H](CC(C)C)NC(=O)[C@@H](Cc1ccc(O)cc1)NC(=O)[C@@H](CO)NC(=O)[C@H](N)Cc1ccc(O)cc1)[C@H](C)O)C(=O)N[C@@H](C(=O)N[C@H](Cc1c[nH]c2ccccc12)C(=O)N[C@H](CCCNC(=N)N)C(N)=O)C(C)C [Mosd1] (H-[dY][dS][dY][dL][dT][dS][dY][dH][dM][dV][dW][dR]-NH2)
relative ThT fluorescence (formation of β-pleated sheet structures) [1]: reduce the relative fluorescence | concentration of high-molecular Aβ species (fractions 11-14) ([2]; 10-80 μM Mosd1, 80 μM Aβ1-42): rises | concentrations of Aβ in the fractions which contained the toxic oligomers ([2]; 10-80 μM Mosd1, 80 μM Aβ1-42, 3 independent experiments): decrease with increasing concentration of Mosd1 | aggregate morphology in TEM [3]: formation of large, high-molecular aggregates
